Patent publication US6372297B1, “Wood preservative oxathiazines” (Uniroyal Chemical Company, Inc., priority 1993, dated 2002)

Experiments:
[1] = system: mixed spore suspension of blue-stain fungus and molds; test: Activity against blue-stain fungi and molds in a mold cabinet test (BS3900: Part G6); parameters: key: 0: No growth; Trace of growth of up to 1% coverage of the test inoculated area; 2: Growth covering between 1 and 10% of the inoculated test area; Growth covering between 10 and 30% of the inoculated test area; 4: Growth covering between 30 and 70% of the inoculated test area; 5: Growth covering more than 70t of the inoculated test area
Method in brief: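 Painted Scots pine sticks, sterilized by irradiation, were treated with compound solutions, dipped in mixed spore suspension and held in a mold chamber for 12 weeks. Surface growth scored 0 (none) to 5 (>70% of inoculated area covered).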

[2] = system: blue-stain fungi and molds; test: Activity against blue-stain fungi and molds in a stick test (threshold concentrations); conditions: beech sticks, 22° C., 90% relative humidity; for Threshold concentration (ppm), A. niger, score 0 / Threshold concentration (ppm), Aureobasidium, score 0 / Threshold concentration (ppm), Sclerophoma, score 0 / Threshold concentration (ppm), Trichoderma, score 0: minimum concentration to obtain score 0; for Threshold concentration (ppm), A. niger, score 1-2 / Threshold concentration (ppm), Aureobasidium, score 1-2 / Threshold concentration (ppm), Sclerophoma, score 1-2 / Threshold concentration (ppm), Trichoderma, score 1-2: minimum concentration to obtain score 1-2
Method in brief: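 Wood sticks soaked 3 h in compound serially diluted in 50% ethanol, dried, then inoculated with fungal or spore suspension. Incubated at 22° C and 90% relative humidity until untreated controls grew, then growth scored 0 (none) to 4 (>50% surface covered).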

Row | SMILES | Surface score in a paint formulation in a mold cabinet test, 6 weeks ([1]; 0.15% in water-based paint) | Surface score in a paint formulation in a mold cabinet test, 12 weeks ([1]; 0.15% in water-based paint) | Surface score in a paint formulation in a mold cabinet test, 6 weeks ([1]; 0.3% in water-based paint) | Surface score in a paint formulation in a mold cabinet test, 12 weeks ([1]; 0.3% in water-based paint) | Threshold concentration (ppm), A. niger, score 0 [2] [ppm] | Threshold concentration (ppm), A. niger, score 1-2 [2] | Threshold concentration (ppm), Aureobasidium, score 0 [2] [ppm] | Threshold concentration (ppm), Aureobasidium, score 1-2 [2] | Threshold concentration (ppm), Sclerophoma, score 0 [2] [ppm] | Threshold concentration (ppm), Sclerophoma, score 1-2 [2] | Threshold concentration (ppm), Trichoderma, score 0 [2] [ppm] | Threshold concentration (ppm), Trichoderma, score 1-2 [2]
1 | [O-][S+]1CCON=C1c1cccs1 (stereo not drawn) [Compound 8] | 0 | 2.0 | 0 | 1.5 | 1000 | 250-500 ppm | >1000 | 250-500 ppm | 100 | 50-100 ppm | 1000 | 500-1000 ppm
2 | O=S1(=O)CCON=C1c1cccs1 [Compound 34] | 0.5 | 1.5 | 0 | 1.0 | 500 | <250 ppm | >1000 | 250-500 ppm | 100 | <50 ppm | 2500 | 500-1000 ppm
